Where two headings read alike, the source gives them in different places.

The source of these data is paper PMC12737022, “Evaluations of Sex Differences in Dosimetry in Rats Following Perfluorohexanesulfonamide (PFHxSA) Oral Exposure” (Toxics, 2025).

Series [1] can be described thus: Ultracentrifugation plasma protein binding assay, rat plasma. The conditions noted are these: for fraction unbound at 1 h, 10 µM: both sexes, SD. It is filed as in vitro ADME. The method, then: Human and rat plasma were evaluated for plasma protein binding of PFHxSA and PFHxS using ultracentrifugation. Data generated in human plasma were obtained from an earlier study; for this study, data were generated in rat plasma following the same protocol as described by Smeltz et al.. SD rat plasma (pooled, mixed sex) was obtained from a commercial vendor (BioIVT, Westbury, NY, USA). Briefly, PFHxSA and PFHxS were added to the plasma to achieve a final assay concentration of 10 µM. Following a 1 h 37 °C incubation, 1 mL aliquots from each plasma solution were drawn in triplicate and transferred to polycarbonate ultracentrifuge tubes. These samples underwent ultracentrifugation (Beckman OptimaMax; Beckman Coulter Inc., Indianapolis, IN, USA) at 850,000× g for 4 h at 37 °C; after completion, the aqueous fraction (AF) was collected by transferring the supernatant to a new tube. Two sets of samples of the original PFAS-spiked whole plasma were also collected after a 1 h or a 5 h incubation at 37 °C. All samples were combined with 3 volumes of ice-cold ACN containing relevant internal standard, vigorously mixed, then centrifuged at 12,000× g for 10 min at 4 °C. Supernatants were collected and then stored at <−70 °C until analysis.
Targeted, quantitative analysis of in vitro hepatocyte metabolic stability and plasma protein binding assay samples was conducted on a Waters (Milford, MA, USA) Xevo-TQS micro ultra-high-performance liquid chromatography tandem mass spectrometry system (UPLC-MS/MS), modified with a PFAS analysis kit. Samples were analyzed in negative ion mode with UniSpray ionization. Samples were analyzed in triplicate, with a reference compound included to evaluate assay performance. A CORTECS T3 column (Waters; 3 mm × 100 mm, 2.7 µm) was used for chromatographic separation with a flow rate of 0.6 mL/min and a temperature of 55 °C. Gradient elution was used with mobile phase A (95:5 H2O/ACN) and mobile phase B (95:5 ACN/H2O), each with 2.5 mM of ammonium acetate added. More details are provided in Smeltz et al..
Intrinsic hepatic clearance (Clint) and fraction unbound in plasma (fup) were calculated from the experimental point estimate data as described in Dobreniecki et al.. Steady-state concentrations (Css) were derived based on zero-order uptake of an assumed daily dose from the gut (assuming 100% intestinal bioavailability) but considering hepatic clearance and non-metabolic renal clearance. Renal clearance was calculated using the glomerular filtration rate (a species-dependent constant) and the fraction unbound in blood (fub), estimated by adjusting the experimental fup for blood/plasma partitioning. The Css calculations, along with underlying species-specific physiologic scalars, are detailed in SI Texts S6 and S7.

Series [2] in a line: Plasma dosimetry of PFHxSA and PFHxS by targeted LC/MS/MS. It counts as in vivo, rat. The following applies: for concentration at 24 h: male, Sprague Dawley (Crl:CD(SD)), rat, oral, mean ± SD, read-out: PFHxS Male Plasma Conc. An excerpt: The plasma and liver samples for this investigation were provided by Mutlu et al.. The study design, including detailed descriptions of animal handling, procedures for dosing, clinical observations, termination, and collection of tissues, is reported elsewhere and is consistent with the ARRIVE guidelines. Briefly, male and female Sprague Dawley (SD) rats (Crl:CD(SD)) (n = 48/sex, 96 total) were purchased from Charles River Laboratory (Raleigh, NC, USA) and allowed to acclimate for ≥5 days before initial dosing. Rats were 8–10 weeks old at the time of exposure. PFHxSA dosing solutions in corn oil were prepared on Day 0 and used over the course of the study. Rats of both sexes (n = 5/sex, dose, and time point, plus eight vehicle controls per sex) were dosed by oral gavage (5 mL/kg body weight) once daily for five days. […] The formulation concentrations decreased from 100 mg/kg/day at half-log10 intervals until the lowest dose level, which was a full log10 interval below the next higher dose, giving eight dose levels (0.01 to 100 mg/kg/day or 0.025 µmol/kg/day to 250 µmol/kg/day) in addition to vehicle controls. Doses were administered in randomized order within ± 1 h on each day of dosing. […] Rats were euthanized 24 h after the last dose. Blood was collected via cardiac puncture with tripotassium ethylene diamine tetraacetic acid (K3EDTA) as an anti-coagulant and centrifuged to collect cell-free plasma. Liver was collected and flash-frozen in liquid nitrogen. Liver, plasma, and dosing formulation samples were frozen at the USEPA Center for Computational Toxicology and Exposure (CCTE), Durham, NC, USA. Tissue samples (plasma and liver, n = 96 each) were stored at ≤−70 °C prior to extraction; dosing formulation samples (n = 9) were stored at −20 °C.
Detailed information on solvents and standards used for targeted LC/MS/MS of PFHxSA and PFHxS can be found in SI Text S1 and SI Table S1. Plasma and liver preparations were modified from Conley et al.. Briefly, aliquots of plasma (25 µL) and liver (~10 mg) were spiked with PFOSA as an internal standard, as no isotope-labeled PFHxSA was available. Sample batches included up to 96 samples along with an MB, CCV, and LCS for QC. Commercial plasma (mixed-sex SD rat plasma) and liver (mixed-sex SD rat) were obtained from BioIVT (Westbury, NY, USA). Cold acetonitrile (ACN) with 0.1 M formic acid was used to precipitate proteins. Liver and plasma samples were prepared similarly, except that the livers were homogenized after solvent addition. Plasma samples were vortexed to mix before being chilled at −20 °C, after which samples were centrifuged at 5 °C and 10,000× g. Liver samples were chilled at −80 °C, then homogenized using an Omni International (Kennesaw, GA, USA) Bead Ruptor 24. Liver homogenates were centrifuged at 26,000× g and 5 °C. Supernatants from the extraction of both matrices were removed and stored at −20 °C until analysis. Refer to SI Text S4 for additional experimental details and information on calibration and QC parameters for quantitation of PFHxSA.
Targeted LC/MS/MS of PFHxSA was performed on a Sciex 4000 QTRAP LC/MS/MS system operated in negative ESI mode with MRM scanning. A Restek (Bellefonte, PA, USA) Raptor Polar X (100 mm × 2 mm, 2.7 µm) column was used for liquid chromatography. Isocratic elution occurred over 10 min with a 30:70 ratio of mobile phase A (10 mM ammonium formate): mobile phase B (60:40 ACN: methanol). Both mobile phases included 0.05% formic acid. The LOQs for PFHxSA were 0.100 µM in plasma and 0.351 µM in liver. Additional details of the instrument method parameters for targeted analysis of PFHxSA are provided in SI Table S5. The MRM transitions for the PFHxSA method are provided in SI Table S6. […]

With `O=S(=O)(O)C(F)(F)C(F)(F)C(F)(F)C(F)(F)C(F)(F)C(F)(F)F` [PFHxS, perfluorohexane sulfonic acid], the fraction unbound at 1 h, 10 µM in series [1] (blood (estimated from fup in plasma), Rat, fup adjusted for blood/plasma partitioning, read-out: fub (fraction unbound in blood)) is 0.0014; in series [1] (Rat plasma, 10 µM, ultracentrifugation, read-out: fup (fraction unbound in plasma)) it was 0.0008. In series [1] (rat plasma), the “Plasma binding of PFHxS higher than PFHxSA” value was 25%. The “Male PFHxS plasma concentrations higher than female at the same dose level” value in series [2] (across the dose range) was 4–10 times. Also, in series [2] (doses of 10 mg/kg/day and up, plasma), the “Female level of PFHxS lower than males, on average” value worked out at 5.3 fold. Besides, the “PFHxS lower than PFHxSA in female plasma, on average” value in series [2] (female rats, after oral PFHxSA) turned out to be 5.3 fold. Besides, in series [2] (male rats, PFHxSA 30 and 100 mg/kg/day), the “PFHxS plasma concentrations higher than coincident PFHxSA plasma levels” value is recorded as 1.6- to 6 fold. The concentration at 24 h in series [2] (plasma, PFHxSA 10 mg/kg/day oral 5 days, male rats) was determined as 76.9 µM; in series [2] (plasma, PFHxSA 30 mg/kg/day oral 5 days, male rats), 136 µM; in series [2] (plasma, PFHxSA 100 mg/kg/day oral 5 days, male rats), 396 µM. The “Male PFHxS/PFHxSA concentration ratios higher than female ratios” value in series [2] (plasma and liver) is “approximately 10 fold”.

The fraction unbound is the share of the substance not bound to proteins or other matrix.
